The values below come from patent EP4620480A1, “IMPLANTATION FACILITATOR, AND SCREENING SYSTEM THEREFOR” (Kansai Medical University Educational Corporation, priority 2022, dated 2025).

Peptide text beside a SMILES is read from it. * marks the point of attachment. Myristoyl = CCCCCCCCCCCCCC(=O)*

The nature of series [1]: Blood tests on maternal bodies after intraperitoneal administration. Format: in vivo. Conditions: female mice, 8 µM with respect to total weight, in corn oil, blood 24 hours after administration. On the procedure:
An excess amount of Iznm-2 was administered intraperitoneally to female mice to examine the side effects of the peptide medicament. In Example 8, […] Iznm-2 was administered together with 5 µl or less of the embryos to the uterus of each mouse. In the present experiment, Iznm-2 was administered in such a manner that the concentration thereof would be 8 µM with respect to the total weight of each mouse. Iznm-2 was dissolved in corn oil. As a control, corn oil without the peptide medicament was administered. Blood samples were collected 24 hours after the administration, and blood components serving as indicators of the condition of the liver and kidney were analyzed.

The next series concerns B6D2F 1 mouse embryos. Kind of series: Embryo development after transfer with peptide-supplemented medium (Example 7). The class given is in vivo. The conditions noted are these: blastocysts in KSOM medium with 32 µM Iznm-2, transferred to pseudopregnant ICR mice, examined at E14. On the procedure: In order to examine the effect of the peptide medicament on embryo development, the following experiment was performed. ICR male mice at 8 weeks of age were vasectomized. ICR female mice in proestrus were mated with the vasectomized male mice, and the female mice having developed a copulation plug on the following day were used as pseudopregnant female mice. Two days after confirming the presence of the copulation plug, B6D2F 1 mouse embryos that had developed into blastocysts were transferred to the female mice. The blastocysts were added to KSOM medium supplemented with 32 µM Iznm-2 immediately before the transfer, and the embryos were transferred together with the medium. The amount of the medium injected into the uterus at the time of transfer was 5 µl or less. The embryo transfer was performed in the following manner. The pseudopregnant female mice were anesthetized, and the skin on one side in the dorsum and the abdominal wall of each mouse were incised to expose the uterus to the outside of the body. The uterus was pierced through with a 26-G needle, and the embryos were injected into the thus-formed hole together with the medium using a glass tube. After the transfer, the uterus was returned to the body, and the incision was sutured. The transferred embryos were allowed to develop in the recipient mice until E14. […]

As to `CCCCCCCCCCCCCC(=O)N[C@@H](CCCCN)C(=O)N[C@@H](Cc1ccccc1)C(=O)N[C@@H](CCC(=O)O)C(=O)N[C@@H](CCC(=O)O)C(=O)N[C@@H](CCC(=O)O)C(=O)N[C@@H](CCCNC(=N)N)C(=O)N[C@@H](CO)C(=O)N[C@@H](CCCNC(=N)N)C(=O)N[C@@H](CS)C(=O)N[C@@H](CCCCN)C(=O)N[C@@H](Cc1c[nH]c2ccccc12)C(=O)N[C@@H](CCSC)C(=O)N[C@H](C(=O)O)[C@@H](C)O` [Iznm-2, Myr-KFEEERSRCKWMT] (Myristoyl-KFEEERSRCKWMT-OH), the CRE in series [1] (Kidney) is reported as 0.12 mg/dL. In series [1] (Liver & Kidney), this compound displayed an LAP of 26 IU/L and a TP of 5.1 g/dL. For the same compound, in series [1] (Liver), the A/G is given as 1.85, the ALB is given as 3.3 g/dL, the ALP is given as 463 IU/L and the ALT turned out to be 38 IU/L. In series [1] (Liver), this compound yielded a ChE of 32.5 IU/L, a D-BIL of 0.02 mg/dL, an I-BIL of 0.02 mg/dL and a T-BIL of 0.08 mg/dL. The compound further returned a γ-GT in series [1] (Liver) of 3 IU/L. For the same compound, in the series with B6D2F 1 mouse embryos, the “development of transferred embryos” value is recorded as “developed normally”.
